# From PubChem BioAssay (NCI)
#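 Results reflect a 48-hour exposure of cells in 96-well plates to compound at five concentrations. At the GI50, growth is halved. Definition used: TGI = concentration required for complete inhibition of growth.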
# Columns and labels:
# Assay in all cases: NCI anticancer screen, dose series, 48 h
# SF-539 CNS = test system: SF-539 CNS
# IGROV1 ovarian = test system: IGROV1 ovarian
# COLO 205 colon = test system: COLO 205 colon
# SF-268 CNS = test system: SF-268 CNS
# NCI-H23 lung = test system: NCI-H23 lung
# TK-10 renal = test system: TK-10 renal
# UACC-62 melanoma = test system: UACC-62 melanoma
# SW-620 colon = test system: SW-620 colon
# SR leukemia = test system: SR leukemia
# HCT-116 colon = test system: HCT-116 colon
# PC-3 prostate = test system: PC-3 prostate
# MOLT-4 leukemia = test system: MOLT-4 leukemia
# OVCAR-3 ovarian = test system: OVCAR-3 ovarian
# OVCAR-8 ovarian = test system: OVCAR-8 ovarian
# SF-295 CNS = test system: SF-295 CNS
# HOP-62 NSCLC = test system: HOP-62 NSCLC
# DU-145 prostate = test system: DU-145 prostate
# A498 renal = test system: A498 renal
# HCT-15 colon = test system: HCT-15 colon
# OVCAR-4 ovarian = test system: OVCAR-4 ovarian
# SNB-19 CNS = test system: SNB-19 CNS
# NCI/ADR-RES ovarian = test system: NCI/ADR-RES ovarian
# A549 NSCLC = test system: A549 NSCLC
# HS 578T breast = test system: HS 578T breast
# NCI-H226 lung = test system: NCI-H226 lung
# K-562 leukemia = test system: K-562 leukemia
# SK-MEL-2 melanoma = test system: SK-MEL-2 melanoma
# UACC-257 melanoma = test system: UACC-257 melanoma
# RXF 393 renal = test system: RXF 393 renal
# SK-MEL-28 melanoma = test system: SK-MEL-28 melanoma
# HCC-2998 colon = test system: HCC-2998 colon
# EKVX NSCLC = test system: EKVX NSCLC
# HT29 colon = test system: HT29 colon
# KM12 colon = test system: KM12 colon
# NCI-H460 lung = test system: NCI-H460 lung
# HL-60(TB) leukemia = test system: HL-60(TB) leukemia
# SK-OV-3 ovarian = test system: SK-OV-3 ovarian
# T-47D breast = test system: T-47D breast
# CAKI-1 renal = test system: CAKI-1 renal
# SNB-75 CNS = test system: SNB-75 CNS
# MCF7 breast = test system: MCF7 breast
# MDA-MB-231 breast = test system: MDA-MB-231 breast
# BT-549 breast = test system: BT-549 breast
# MALME-3M melanoma = test system: MALME-3M melanoma
# U251 CNS = test system: U251 CNS
# CCRF-CEM leukemia = test system: CCRF-CEM leukemia
# M14 melanoma = test system: M14 melanoma
# LOX IMVI melanoma = test system: LOX IMVI melanoma
# RPMI-8226 leukemia = test system: RPMI-8226 leukemia
# UO-31 renal = test system: UO-31 renal
# MDA-MB-435 = test system: MDA-MB-435
# 786-0 renal = test system: 786-0 renal
# HOP-92 NSCLC = test system: HOP-92 NSCLC
# OVCAR-5 ovarian = test system: OVCAR-5 ovarian
# ACHN renal = test system: ACHN renal
# NCI-H522 lung = test system: NCI-H522 lung
# SN12C renal = test system: SN12C renal
# SK-MEL-5 melanoma = test system: SK-MEL-5 melanoma
smiles,measurement,setting,value
COc1ccc(CNCCCN2C(=O)c3ccc4c5c(ccc(c35)C2=O)C(=O)N(CCCNCCCCNCCCN)C4=O)c(OC)c1OC,GI50,SF-539 CNS,2.23 µM
same,TGI,SF-539 CNS,5.3 µM
same,GI50,IGROV1 ovarian,1.54 µM
same,TGI,IGROV1 ovarian,12.5 µM
same,GI50,COLO 205 colon,0.194 µM
same,TGI,COLO 205 colon,0.391 µM
same,GI50,SF-268 CNS,0.955 µM
same,TGI,SF-268 CNS,13.2 µM
same,GI50,NCI-H23 lung,1.35 µM
same,TGI,NCI-H23 lung,4.22 µM
same,GI50,TK-10 renal,2.71 µM
same,TGI,TK-10 renal,12.8 µM
same,GI50,UACC-62 melanoma,1.48 µM
same,TGI,UACC-62 melanoma,4.37 µM
same,GI50,SW-620 colon,0.448 µM
same,TGI,SW-620 colon,2.52 µM
same,GI50,SR leukemia,1.31 µM
same,TGI,SR leukemia,17.4 µM
same,GI50,HCT-116 colon,0.534 µM
same,TGI,HCT-116 colon,3.77 µM
same,GI50,PC-3 prostate,2.4 µM
same,TGI,PC-3 prostate,26.3 µM
same,GI50,MOLT-4 leukemia,1.53 µM
same,TGI,MOLT-4 leukemia,15.6 µM
same,GI50,OVCAR-3 ovarian,1.17 µM
same,TGI,OVCAR-3 ovarian,2.48 µM
same,GI50,OVCAR-8 ovarian,0.618 µM
same,TGI,OVCAR-8 ovarian,8.2 µM
same,GI50,SF-295 CNS,2.35 µM
same,TGI,SF-295 CNS,15.9 µM
same,GI50,HOP-62 NSCLC,1.4 µM
same,TGI,HOP-62 NSCLC,8.97 µM
same,GI50,DU-145 prostate,1.55 µM
same,TGI,DU-145 prostate,3.44 µM
same,GI50,A498 renal,5.5 µM
same,TGI,A498 renal,23.1 µM
same,GI50,HCT-15 colon,2.76 µM
same,TGI,HCT-15 colon,7.94 µM
same,GI50,OVCAR-4 ovarian,1.02 µM
same,TGI,OVCAR-4 ovarian,3.08 µM
same,GI50,SNB-19 CNS,1.42 µM
same,TGI,SNB-19 CNS,11.4 µM
same,GI50,NCI/ADR-RES ovarian,6.01 µM
same,TGI,NCI/ADR-RES ovarian,49.7 µM
same,GI50,A549 NSCLC,1.69 µM
same,TGI,A549 NSCLC,16.1 µM
same,GI50,HS 578T breast,7.52 µM
same,TGI,HS 578T breast,43.4 µM
same,GI50,NCI-H226 lung,2.11 µM
same,TGI,NCI-H226 lung,16.4 µM
same,GI50,K-562 leukemia,0.761 µM
same,TGI,K-562 leukemia,12.7 µM
same,GI50,SK-MEL-2 melanoma,1.72 µM
same,TGI,SK-MEL-2 melanoma,4.11 µM
same,GI50,UACC-257 melanoma,0.334 µM
same,TGI,UACC-257 melanoma,1.38 µM
same,GI50,RXF 393 renal,1.36 µM
same,TGI,RXF 393 renal,3.67 µM
same,GI50,SK-MEL-28 melanoma,1.89 µM
same,TGI,SK-MEL-28 melanoma,4.81 µM
same,GI50,HCC-2998 colon,1.67 µM
same,TGI,HCC-2998 colon,4.79 µM
same,GI50,EKVX NSCLC,4.05 µM
same,TGI,EKVX NSCLC,19.3 µM
same,GI50,HT29 colon,0.452 µM
same,TGI,HT29 colon,3.23 µM
same,GI50,KM12 colon,1.27 µM
same,TGI,KM12 colon,7.53 µM
same,GI50,NCI-H460 lung,0.703 µM
same,TGI,NCI-H460 lung,7.03 µM
same,GI50,HL-60(TB) leukemia,2.73 µM
same,TGI,HL-60(TB) leukemia,13.1 µM
same,GI50,SK-OV-3 ovarian,3.18 µM
same,TGI,SK-OV-3 ovarian,83.2 µM
same,GI50,T-47D breast,0.335 µM
same,TGI,T-47D breast,1.88 µM
same,GI50,CAKI-1 renal,4.49 µM
same,TGI,CAKI-1 renal,44.9 µM
same,GI50,SNB-75 CNS,1.27 µM
same,TGI,SNB-75 CNS,3.63 µM
same,GI50,MCF7 breast,0.355 µM
same,TGI,MCF7 breast,1.62 µM
same,GI50,MDA-MB-231 breast,2.44 µM
same,TGI,MDA-MB-231 breast,18 µM
same,GI50,BT-549 breast,6.13 µM
same,TGI,BT-549 breast,21.5 µM
same,GI50,MALME-3M melanoma,1.21 µM
same,TGI,MALME-3M melanoma,2.76 µM
same,GI50,U251 CNS,0.63 µM
same,TGI,U251 CNS,2.97 µM
same,GI50,CCRF-CEM leukemia,1.94 µM
same,TGI,CCRF-CEM leukemia,17.8 µM
same,GI50,M14 melanoma,1.66 µM
same,TGI,M14 melanoma,3.57 µM
same,GI50,LOX IMVI melanoma,0.654 µM
same,TGI,LOX IMVI melanoma,7.83 µM
same,GI50,RPMI-8226 leukemia,2.7 µM
same,TGI,RPMI-8226 leukemia,12.2 µM
same,GI50,UO-31 renal,4.84 µM
same,TGI,UO-31 renal,> 100 µM
same,GI50,MDA-MB-435,1.17 µM
same,TGI,MDA-MB-435,6.57 µM
same,GI50,786-0 renal,3.53 µM
same,TGI,786-0 renal,22.5 µM
COc1ccc(CCNC(=O)Cc2ccccc2CCO)cc1OC,TGI,SF-539 CNS,> 100 µM
same,TGI,IGROV1 ovarian,> 100 µM
same,TGI,COLO 205 colon,> 100 µM
same,TGI,SF-268 CNS,> 100 µM
same,TGI,HOP-92 NSCLC,> 100 µM
same,TGI,NCI-H23 lung,> 100 µM
same,TGI,TK-10 renal,> 100 µM
same,TGI,UACC-62 melanoma,> 100 µM
same,TGI,SW-620 colon,> 100 µM
same,TGI,SR leukemia,> 100 µM
same,TGI,HCT-116 colon,> 100 µM
same,TGI,PC-3 prostate,> 100 µM
same,TGI,MOLT-4 leukemia,> 100 µM
same,TGI,OVCAR-5 ovarian,> 100 µM
same,TGI,OVCAR-3 ovarian,> 100 µM
same,TGI,OVCAR-8 ovarian,> 100 µM
same,TGI,SF-295 CNS,> 100 µM
same,TGI,HOP-62 NSCLC,> 100 µM
same,TGI,ACHN renal,> 100 µM
same,TGI,DU-145 prostate,> 100 µM
same,TGI,A498 renal,> 100 µM
same,TGI,HCT-15 colon,> 100 µM
same,TGI,OVCAR-4 ovarian,> 100 µM
same,TGI,SNB-19 CNS,> 100 µM
same,TGI,NCI/ADR-RES ovarian,> 100 µM
same,TGI,A549 NSCLC,> 100 µM
same,TGI,HS 578T breast,> 100 µM
same,TGI,NCI-H226 lung,> 100 µM
same,TGI,K-562 leukemia,> 100 µM
same,TGI,SK-MEL-2 melanoma,> 100 µM
same,TGI,UACC-257 melanoma,> 100 µM
same,TGI,RXF 393 renal,> 100 µM
same,TGI,SK-MEL-28 melanoma,> 100 µM
same,TGI,HCC-2998 colon,> 100 µM
same,TGI,EKVX NSCLC,> 100 µM
same,TGI,HT29 colon,> 100 µM
same,TGI,KM12 colon,> 100 µM
same,TGI,NCI-H522 lung,> 100 µM
same,TGI,NCI-H460 lung,> 100 µM
same,TGI,HL-60(TB) leukemia,> 100 µM
same,TGI,SK-OV-3 ovarian,> 100 µM
same,TGI,T-47D breast,> 100 µM
same,TGI,CAKI-1 renal,> 100 µM
same,TGI,SNB-75 CNS,> 100 µM
same,TGI,MCF7 breast,> 100 µM
same,TGI,MDA-MB-231 breast,> 100 µM
same,TGI,BT-549 breast,> 100 µM
same,TGI,U251 CNS,> 100 µM
same,TGI,CCRF-CEM leukemia,> 100 µM
same,TGI,M14 melanoma,> 100 µM
same,TGI,SN12C renal,> 100 µM
same,TGI,RPMI-8226 leukemia,> 100 µM
same,TGI,UO-31 renal,> 100 µM
same,TGI,MDA-MB-435,> 100 µM
same,TGI,SK-MEL-5 melanoma,> 100 µM
same,TGI,786-0 renal,> 100 µM
